Source: patent US8106055B2, “Substituted amide compounds” (Gruenenthal GmbH, priority 2007, dated 2012)

Tests used:
[1] = target: T1, human bradykinin 1 receptor (B1R) (Homo sapiens, UniProt P46663); test: Functional investigation on the human bradykinin 1 receptor (B1R), Ca2+ FLIPR assay in CHO K1 hB1R cells; type: cell-based; settings: CHO-K1, B1R antagonism human; test substance 10 μM; Ca2+ FLIPR, CHO K1 hB1R cells; read-out: B1R Ant. h [10 μM] % Inhibition
T1 construct: expressed in transfected cells; host or cells: CHO K1 cells
T1 sequence (P46663 1-353): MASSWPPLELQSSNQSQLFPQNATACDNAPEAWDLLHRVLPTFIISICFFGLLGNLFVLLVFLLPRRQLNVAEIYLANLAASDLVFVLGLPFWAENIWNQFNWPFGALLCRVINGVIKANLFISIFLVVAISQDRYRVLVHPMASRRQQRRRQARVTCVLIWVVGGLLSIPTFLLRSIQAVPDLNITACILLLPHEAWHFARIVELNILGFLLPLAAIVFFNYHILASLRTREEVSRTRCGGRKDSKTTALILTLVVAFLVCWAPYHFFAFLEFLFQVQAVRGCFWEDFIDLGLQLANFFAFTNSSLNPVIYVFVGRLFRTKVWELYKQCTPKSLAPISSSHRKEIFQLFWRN
In short: (§1)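 Stably transfected CHO K1 cells loaded with Fluo-4; FLIPR Ca2+ fluorescence peak (ex 488/em 540 nm). Compound added first (agonism vs Lys-Des-Arg9-bradykinin ≥50 nM human, Des-Arg9-bradykinin 10 μM rat), then after 10-20 min agonist at EC80; antagonism as % inhibition, IC50 from concentration series, n=2-3, N≥2.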

[2] = target: T2, bradykinin 1 receptor (B1R) of the rat (Rattus norvegicus, UniProt P97583); test: Functional investigation on the rat bradykinin 1 receptor (B1R), Ca2+ FLIPR assay in CHO K1 rB1R cells; type: cell-based; settings: CHO-K1, B1R antagonism rat; test substance 10 μM; Ca2+ FLIPR, CHO K1 rB1R cells; read-out: B1R Ant. r [10 μM] % Inhibition
T2 construct: expressed in transfected cells; host or cells: CHO K1 cells
T2 sequence (P97583 1-337): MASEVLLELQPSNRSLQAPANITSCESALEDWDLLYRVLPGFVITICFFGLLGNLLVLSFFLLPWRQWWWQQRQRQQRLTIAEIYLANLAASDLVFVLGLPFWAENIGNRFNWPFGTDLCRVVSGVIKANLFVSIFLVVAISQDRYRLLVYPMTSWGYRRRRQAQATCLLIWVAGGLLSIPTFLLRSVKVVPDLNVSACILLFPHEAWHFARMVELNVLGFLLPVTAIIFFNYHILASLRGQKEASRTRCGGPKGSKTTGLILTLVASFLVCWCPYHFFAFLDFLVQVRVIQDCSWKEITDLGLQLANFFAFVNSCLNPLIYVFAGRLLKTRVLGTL
In short: as §1

| Compound | inhibition at 10 µM [1] [%] | inhibition at 10 µM [2] [%] |
| --- | --- | --- |
| Cc1ccc(S(=O)(=O)N2CCC(OCC(=O)NC3CCC(C(c4cccs4)N(C)C)CC3)C2)cc1 (stereo not shown) [Example 156, N-(4-((dimethylamino)(thiophen-2-yl)methyl)cyclohexyl)-2-(1-tosylpyrrolidin-3-yloxy)acetamide] | 5 | 20 |
| Cc1ccc(S(=O)(=O)N(C)CCOCC(=O)NCC2CCC(C(c3ccccc3)N(C)C)CC2)cc1 (stereo not shown) [Example 157, N-((4-((dimethylamino) (phenyl)methyl)cyclohexyl)methyl)-2-(2-(N,4-dimethylphenylsulfonamido)ethoxy)acetamide] | 5 | -1 |
| CN(C)C(c1cccc(F)c1)C1CCC(CNC(=O)COCCN(C)S(=O)(=O)c2ccc(Cl)cc2)CC1 (stereo not shown) [Example 158, 2-(2-(4-chloro-N-methylphenylsulfonamido)ethoxy)-N-((4-((dimethylamino)(3-fluorophenyl)methyl)cyclohexyl)methyl)acetamide] | 20 | 5 |
| CN(C)C(c1cccs1)C1CCC(NC(=O)COCCN(Cc2ccccc2)S(=O)(=O)c2ccccc2)CC1 (stereo not shown) [Example 161, 2-(2-(N-benzylphenylsulfonamido)ethoxy)-N-(4-((dimethylamino)(thiophen-2-yl)methyl)cyclohexyl)acetamide] | 1 | 3 |
| COc1ccc(S(=O)(=O)N2CCCC2COCC(=O)NC2CCC(C(c3cccs3)N(C)C)CC2)cc1 (stereo not shown) [Example 162, N-(4-((dimethylamino)(thiophen-2-yl)methyl)cyclohexyl)-2-((1-(4-methoxyphenylsulfonyl)pyrrolidin-2-yl)methoxy)acetamide] | -5 | 21 |
| COc1ccc(S(=O)(=O)N2Cc3ccccc3CC2COCC(=O)NCC2CCC(C(c3cccc(F)c3)N(C)C)CC2)cc1 (stereo not shown) [Example 163, N-((4-((dimethylamino)(3-fluorophenyl)methyl)cyclohexyl)methyl)-2-((2-(4-methoxyphenylsulfonyl)-1,2,3,4-tetrahydroisoquinolin-3-yl)methoxy)acetamide] | 40 | 36 |
| CN(C)C(c1cccc(F)c1)C1CCC(CNC(=O)COC2CCCCC2N(C)S(=O)(=O)c2ccc(Cl)c(Cl)c2)CC1 (stereo not shown) [Example 164, 2-(2-(3,4-dichloro-N-methylphenylsulfonamido)cyclohexyloxy)-N-((4-((dimethylamino)(3-fluorophenyl)methyl)cyclohexyl)methyl)acetamide] | 14 | 17 |
| COc1cc(C)c(S(=O)(=O)N2CCC(OCC(=O)NC3CCC(C(c4ccccc4)N(C)C)CC3)C2)c(C)c1 (stereo not shown) [Example 165, N-(4-((dimethylamino)(phenyl)methyl)cyclohexyl)-2-(1-(4-methoxy-2,6-dimethylphenylsulfonyl)pyrrolidin-3-yloxy)acetamide] | 98 | 38 |
| Cc1ccc(S(=O)(=O)N2CCC(OCC(=O)NC3CCC(C(c4cccc(F)c4)N(C)C)CC3)C2)cc1 (stereo not shown) [Example 167, N-(4-((dimethylamino)(3-fluorophenyl)methyl)cyclohexyl)-2-(1-tosylpyrrolidin-3-yloxy)acetamide] | -12 | 40 |
| COc1ccc(S(=O)(=O)N(C)CCOCC(=O)NCC2CCC(C(c3ccccc3)N(C)C)CC2)cc1OC (stereo not shown) [Example 169, 2-(2-(3,4-dimethoxy-N-methylphenylsulfonamido)ethoxy)-N-((4-((dimethylamino)(phenyl)methyl)cyclohexyl)methyl)acetamide] | -4 | -15 |
| CN(C)C(c1cccc(F)c1)C1CCC(CNC(=O)COC2CCN(S(=O)(=O)c3cccc(C(F)(F)F)c3)C2)CC1 (stereo not shown) [Example 170, N-((4-((dimethylamino)(3-fluorophenyl)methyl)cyclohexyl)methyl)-2-(1-(3-(trifluoromethyl)phenylsulfonyl)pyrrolidin-3-yloxy)acetamide] | 8 | 38 |
| CN(C)C(c1cccc(F)c1)C1CCC(NC(=O)COCCN(C)S(=O)(=O)c2c(Cl)cccc2Cl)CC1 (stereo not shown) [Example 171, 2-(2-(2,6-dichloro-N-methylphenylsulfonamido)ethoxy)-N-(4-((dimethylamino)(3-fluorophenyl)methyl)cyclohexyl)acetamide] | 68 | 43 |
| CN(C)C(c1cccc(F)c1)C1CCC(NC(=O)COC2CCN(S(=O)(=O)c3ccc(F)cc3)C2)CC1 (stereo not shown) [Example 172, N-(4-((dimethylamino)(3-fluorophenyl)methyl)cyclohexyl)-2-(1-(4-fluorophenylsulfonyl)pyrrolidin-3-yloxy)acetamide] | -12 | 18 |
| COc1cc(C)c(S(=O)(=O)N2CCC(OCC(=O)NCC3CCC(C(c4ccccc4)N(C)C)CC3)C2)c(C)c1 (stereo not shown) [Example 173, N-((4-((dimethylamino)(phenyl)methyl)cyclohexyl)methyl)-2-(1-(4-methoxy-2,6-dimethylphenylsulfonyl)pyrrolidin-3-yloxy)acetamide] | 94 | 104 |
| CN(C)C(c1cccc(F)c1)C1CCC(CCNC(=O)COCCN(C)S(=O)(=O)c2c(Cl)cc(Cl)cc2Cl)CC1 (stereo not shown) [Example 174, N-(2-(4-((dimethylamino)(3-fluorophenyl)methyl)cyclohexyl)ethyl)-2-(2-(2,4,6-trichloro-N-methylphenylsulfonamido)ethoxy)acetamide] | 103 | 44 |
| CN(C)C(c1cccc(F)c1)C1CCC(NC(=O)COCCN(Cc2ccccc2)S(=O)(=O)c2ccccc2)CC1 (stereo not shown) [Example 175, 2-(2-(N-benzylphenylsulfonamido)ethoxy)-N-(4-((dimethylamino)(3-fluorophenyl)methyl)cyclohexyl)acetamide] | -6 | 5 |
| CCN(CCOCC(=O)NC1CCC(C(c2cccc(F)c2)N(C)C)CC1)S(=O)(=O)c1c(C)cc(OC)c(C)c1C (stereo not shown) [Example 176, N-(4-((dimethylamino)(3-fluorophenyl)methyl)cyclohexyl)-2-(2-(N-ethyl-4-methoxy-2,3,6-trimethylphenylsulfonamido)ethoxy)acetamide] | 64 | 47 |
| COc1cc(C)c(S(=O)(=O)N2CCC(OCC(=O)NCCC3CCC(C(c4cccs4)N(C)C)CC3)CC2)c(C)c1C (stereo not shown) [Example 177, N-(2-(4-((dimethylamino)(thiophen-2-yl)methyl)cyclohexyl)ethyl)-2-(1-(4-methoxy-2,3,6-trimethylphenylsulfonyl)piperidin-4-yloxy)acetamide] | 10 | 45 |
| COc1cc(C)c(S(=O)(=O)N2CCC(CCOCC(=O)NC3CCC(C(c4ccc(F)cc4)N(C)C)CC3)CC2)c(C)c1C (stereo not shown) [Example 178, N-(4-((dimethylamino)(4-fluorophenyl)methyl)cyclohexyl)-2-(2-(1-(4-methoxy-2,3,6-trimethylphenylsulfonyl)piperidin-4-yl)ethoxy)acetamide] | 24 | 12 |
| COc1ccc(S(=O)(=O)N2CCCCC2COCC(=O)NCC2CCC(C(c3cccc(F)c3)N(C)C)CC2)cc1 (stereo not shown) [Example 179, N-((4-((dimethylamino)(3-fluorophenyl)methyl)cyclohexyl)methyl)-2-((1-(4-methoxyphenylsulfonyl)piperidin-2-yl)methoxy)acetamide] | 65 | 67 |
| COc1ccc(S(=O)(=O)N2CCCCC2COCC(=O)NCCC2CCC(C(c3cccc(F)c3)N(C)C)CC2)cc1 (stereo not shown) [Example 180, N-(2-(4-((dimethylamino)(3-fluorophenyl)methyl)cyclohexyl)ethyl)-2-((1-(4-methoxyphenylsulfonyl)piperidin-2-yl)methoxy)acetamide] | 62 | 68 |
| COc1ccc(S(=O)(=O)N2CCCC2COCC(=O)NC2CCC(C(c3ccccc3)N(C)C)CC2)cc1 (stereo not shown) [Example 182, N-(4-((dimethylamino)(phenyl)methyl)cyclohexyl)-2-((1-(4-methoxyphenylsulfonyl)pyrrolidin-2-yl)methoxy)acetamide] | 9 | 25 |
| COc1cc(C)c(S(=O)(=O)N(C)CCOCC(=O)NCCC2CCC(C(c3cccc(F)c3)N(C)C)CC2)c(C)c1C (stereo not shown) [Example 183, N-(2-(4-((dimethylamino)(3-fluorophenyl)methyl)cyclohexyl)ethyl)-2-(2-(4-methoxy-N,2,3,6-tetramethylphenylsulfonamido)ethoxy)acetamide] | 104 | 28 |
